# Biological target: T1, full-length hepatitis C viral protein NS3•4A (Hepatitis C virus genotype 1a, UniProt P27958)
# T1 construct: hexa-histidine (N); made in house; host or cells: Sf9 insect cells (baculovirus, pVL1392)
# Assay: biochemical
# Parameters: species or system HCV sub-type strain 1a
# [1] = Enzyme Assay 2 (HCV NS3 Peptide Cleavage Assay) activity, apparent Ki class
# [2] = Enzyme Assay 2, HCV NS3 Peptide Cleavage Assay, apparent Ki
compound,measurement,setting,value
CNC(=O)C(=O)[C@H](CC1CC1)NC(=O)[C@@H]1C[C@]2(CC(c3cc(C)c(OC)c(Cl)c3)=NO2)CN1C(=O)[C@@H](NC(=O)CC1CCCCC1)C(C)(C)C [Compound 642],Ki,[1],< 100 nM
CCC[C@H](NC(=O)[C@@H]1C[C@]2(CC(c3cc(C)c(OCC)c(C)c3)=NO2)CN1C(=O)[C@@H](NC(=O)OC1CCCC1)C(C)(C)C)C(=O)C(=O)NC1CC1 [Compound 860],Ki,[2],< 100 nM
CNC(=O)C(=O)[C@H](CC1CCC1)NC(=O)[C@@H]1C[C@]2(CC(c3cccc(Cl)c3)=NO2)CN1C(=O)[C@@H](NC(=O)CC1CCCCC1)C(C)(C)C [Compound 741],Ki,[1],< 100 nM
CNC(=O)C(=O)[C@H](CC1CC1)NC(=O)[C@@H]1C[C@]2(CC(c3cc(Cl)c(OC)cc3OC)=NO2)CN1C(=O)[C@@H](NC(=O)CC1CCCCCC1)C(C)(C)C [Compound 616],Ki,[1],< 100 nM
CCC[C@H](NC(=O)C1C[C@]2(CC(c3cc(C)c(OC)c(C)c3)=NO2)CN1C(=O)[C@@H](NC(=O)[C@@H]1C[C@H]1c1c[nH]cn1)C(C)(C)C)C(=O)C(=O)NC1CC1 (some centres unmarked) [Compound 907],Ki,[2],100 to 500 nM
CCC[C@H](NC(=O)[C@@H]1C[C@]2(CC(c3cc(C)c(OCC)c(C)c3)=NO2)CN1C(=O)[C@@H](NC(=O)[C@@H]1C[C@H]1c1ccc(F)cc1)C(C)(C)C)C(=O)C(=O)NC [Compound 995],Ki,[2],< 100 nM
CCNC(=O)C(=O)[C@H](CC1CC1)NC(=O)[C@@H]1C[C@]2(CC(c3cc(Cl)ccc3OC)=NO2)CN1C(=O)[C@@H](NC(=O)[C@@H]1C[C@H]1c1ccccc1)C(C)(C)C [Compound 970],Ki,[2],< 100 nM
CCC[C@H](NC(=O)[C@@H]1C[C@]2(CC(c3cc(Cl)cc(C)c3OC)=NO2)CN1C(=O)[C@@H](NC(=O)CC1CCCCC1)C(C)(C)C)C(=O)C(=O)NC1CC1 [Compound 643],Ki,[1],< 100 nM
CCC[C@H](NC(=O)[C@@H]1C[C@]2(CC(c3nccc4ccccc34)=NO2)CN1C(=O)[C@@H](NC(=O)OC1CCCC1)C(C)(C)C)C(=O)C(=O)NC1CC1 [Compound 661],Ki,[1],< 100 nM
CCC[C@H](NC(=O)[C@@H]1C[C@]2(CC(c3cc(Cl)c4c(c3)CCCN4C)=NO2)CN1C(=O)[C@@H](NC(=O)OC(C)(C)C)C(C)(C)C)C(=O)C(=O)NC1CC1 [Compound 601],Ki,[1],< 100 nM
CCC[C@H](NC(=O)[C@@H]1C[C@]2(CC(c3cc(C)c(OC)cc3OC)=NO2)CN1C(=O)[C@@H](NC(=O)[C@@H]1C[C@H]1c1ccccc1)C(C)(C)C)C(=O)C(=O)NC1CC1 [Compound 875],Ki,[2],< 100 nM
COc1c(C)cc(C2=NO[C@]3(C2)C[C@@H](C(=O)NC(CC2CC2)C(=O)C(N)=O)N(C(=O)[C@@H](NC(=O)OC2CCCC2)C(C)(C)C)C3)cc1C (some centres unmarked) [Compound 769],Ki,[1],100 to 500 nM
CCC[C@H](NC(=O)[C@@H]1C[C@]2(CC(c3cc(Cl)c(OC)cc3OC)=NO2)CN1C(=O)[C@@H](NC(=O)CC1CCCCCC1)C(C)(C)C)C(=O)C(N)=O [Compound 656],Ki,[1],100 to 500 nM
CCC[C@H](NC(=O)[C@@H]1C[C@]2(CC(N3Cc4ccccc4C3)=NO2)CN1C(=O)[C@@H](NC(=O)OC1CCCC1)C(C)(C)C)C(=O)C(=O)NC1CC1 [Compound 964],Ki,[2],100 to 500 nM
CC(C)(C)[C@H](NC(=O)CC1CCCCCC1)C(=O)N1C[C@@]2(CC(c3cccc(Cl)c3)=NO2)C[C@H]1C(=O)N[C@@H](CC1CC1)C(=O)C(N)=O [Compound 219],Ki,[1],< 100 nM
CCC[C@H](NC(=O)[C@@H]1C[C@]2(CC(N3Cc4ccccc4C3)=NO2)CN1C(=O)[C@@H](NC(=O)OC1CCCC1)C(C)(C)C)C(=O)C(=O)NC1CC1 [Compound 904],Ki,[2],< 100 nM
COc1ccc(Cl)cc1C1=NO[C@]2(C1)C[C@@H](C(=O)N[C@@H](CC1CC1)C(=O)C(N)=O)N(C(=O)[C@@H](NC(=O)CC1CCCCCC1)C(C)(C)C)C2 [Compound 635],Ki,[1],< 100 nM
CC1(CC(=O)N[C@H](C(=O)N2C[C@@]3(CC(c4cccc(Cl)c4)=NO3)C[C@H]2C(=O)N[C@@H](CC2CC2)C(=O)C(N)=O)C(C)(C)C)CCOCC1 [Compound 184],Ki,[1],< 100 nM
CCC[C@H](NC(=O)[C@@H]1C[C@]2(CC(c3ccc(F)c(Cl)c3)=NO2)CN1C(=O)[C@@H](NC(=O)CC1CCCCCC1)C(C)(C)C)C(=O)C(=O)NC [Compound 610],Ki,[1],< 100 nM
CCC[C@H](NC(=O)[C@@H]1C[C@]2(CC(c3cccc(Cl)c3)=NO2)CN1C(=O)[C@@H](NC(=O)[C@@H]1CC12CCOCC2)C(C)(C)C)C(=O)C(=O)NC1CC1 [Compound 923],Ki,[2],< 100 nM
[2H][C@@](CCC)(NC(=O)[C@@H]1C[C@]2(CC(c3cc(C)c(OC)c(C)c3)=NO2)CN1C(=O)[C@@H](NC(=O)CC1CCCCC1)C(C)(C)C)C(=O)C(=O)NC1CC1 [Compound 967],Ki,[2],< 100 nM
CCC[C@H](NC(=O)[C@@H]1C[C@]2(CC(c3cc(Cl)c(OC)cc3C)=NO2)CN1C(=O)[C@@H](NC(=O)OC(C)(C)C)C(C)(C)C)C(=O)C(=O)NC1CC1 [Compound 628],Ki,[1],100 to 500 nM
CNC(=O)C(=O)[C@H](CC1CC1)NC(=O)[C@@H]1C[C@]2(CC(c3cccc(Cl)c3)=NO2)CN1C(=O)[C@@H](NC(=O)[C@@H]1CC12CCCCC2)C(C)(C)C [Compound 850],Ki,[2],< 100 nM
CNC(=O)C(=O)[C@H](CC1CC1)NC(=O)[C@@H]1C[C@]2(CC(c3cccc(Cl)c3)=NO2)CN1C(=O)[C@@H](NC(=O)[C@@H]1C[C@H]1c1ccccc1)C(C)(C)C [Compound 696],Ki,[1],< 100 nM
CCC[C@H](NC(=O)[C@@H]1C[C@]2(CC(c3cccc(Cl)c3)=NO2)CN1C(=O)[C@@H](NC(=O)[C@H]1C[C@@H]1C1CCCCC1)C(C)(C)C)C(=O)C(N)=O [Compound 932],Ki,[2],< 100 nM
CNC(=O)C(=O)[C@H](CC1CC1)NC(=O)[C@@H]1C[C@]2(CC(c3cccc(Cl)c3)=NO2)CN1C(=O)[C@@H](NC(=O)CC1CCCCC1)C1(OC)CC1 [Compound 617],Ki,[1],100 to 500 nM
COc1c(C)cc(C2=NO[C@]3(C2)C[C@@H](C(=O)N[C@@H](CC2CC2)C(=O)C(N)=O)N(C(=O)[C@@H](NC(=O)CC2CCCCC2)C(C)(C)C)C3)cc1C [Compound 726],Ki,[1],< 100 nM
CCC[C@H](NC(=O)[C@@H]1C[C@]2(CC(c3cc(Cl)ccc3OC)=NO2)CN1C(=O)[C@@H](NC(=O)CC1CCCCCC1)C(C)(C)C)C(=O)C(N)=O [Compound 637],Ki,[1],< 100 nM
CCC[C@H](NC(=O)[C@@H]1C[C@]2(CC(c3cc(F)cc4c3OCOC4)=NO2)CN1C(=O)[C@@H](NC(=O)CC1CCCCC1)C(C)(C)C)C(=O)C(=O)NC1CC1 [Compound 305],Ki,[1],100 to 500 nM
CCC[C@H](NC(=O)[C@@H]1C[C@]2(CC(c3cc(Cl)c(OC)cc3C)=NO2)CN1C(=O)[C@@H](NC(=O)CC1CCCCC1)C(C)(C)C)C(=O)C(=O)NC [Compound 604],Ki,[1],100 to 500 nM
CCC[C@H](NC(=O)[C@@H]1C[C@]2(CC(c3ccc(F)c(Cl)c3)=NO2)CN1C(=O)[C@@H](NC(=O)CC(C)(C)C)C(C)(C)C)C(=O)C(=O)NC1CC1 [Compound 613],Ki,[1],< 100 nM
CCC[C@H](NC(=O)[C@@H]1C[C@]2(CC(c3cccc(Cl)c3F)=NO2)CN1C(=O)[C@@H](NC(=O)CC1CCCCC1)C(C)(C)C)C(=O)C(=O)NC1CC1 [Compound 169],Ki,[1],100 to 500 nM
CCC[C@H](NC(=O)[C@@H]1C[C@]2(CC(c3cccc(Cl)c3)=NO2)CN1C(=O)[C@@H](NC(=O)C1(c2ccccc2)CC1)C(C)(C)C)C(=O)C(=O)NC1CC1 [Compound 961],Ki,[2],> 500 nM
CCOc1cc(OC)c(C2=NO[C@]3(C2)C[C@@H](C(=O)N[C@@H](CC2CC2)C(=O)C(=O)NC)N(C(=O)[C@@H](NC(=O)OC2CCCC2)C(C)(C)C)C3)cc1Cl [Compound 947],Ki,[2],< 100 nM
CCC[C@H](NC(=O)[C@@H]1C[C@]2(CC(c3cccc(Cl)c3)=NO2)CN1C(=O)[C@@H](NC(=O)CC(C)(C)OC)C(C)(C)C)C(=O)C(=O)NC1CC1 [Compound 772],Ki,[1],< 100 nM
CCC[C@H](NC(=O)[C@@H]1C[C@]2(CC(c3cccc([N+](=O)[O-])c3)=NO2)CN1C(=O)[C@@H](NC(=O)CC1CCCCC1)C(C)(C)C)C(=O)C(=O)NC1CC1 [Compound 89],Ki,[1],100 to 500 nM
CCC[C@H](NC(=O)[C@@H]1C[C@]2(CC(c3cc(Cl)c(OCC)cc3OC)=NO2)CN1C(=O)[C@@H](NC(=O)CC1CCCCC1)C(C)(C)C)C(=O)C(=O)NC1CC1 [Compound 818],Ki,[2],< 100 nM
CCC[C@H](NC(=O)[C@@H]1C[C@]2(CC(c3cc(C)c(OCC)c(Cl)c3)=NO2)CN1C(=O)[C@@H](NC(=O)[C@@H]1C[C@H]1c1ccccc1)C(C)(C)C)C(=O)C(=O)NC1CC1 [Compound 915],Ki,[2],< 100 nM
CNC(=O)C(=O)[C@H](CC1CC1)NC(=O)[C@@H]1C[C@]2(CC(c3cc(C)c(OC)c(C)c3)=NO2)CN1C(=O)[C@@H](NC(=O)CC1CCCCC1)C(C)(C)C [Compound 725],Ki,[1],< 100 nM
CCOc1c(C)cc(C2=NO[C@]3(C2)C[C@@H](C(=O)N[C@@H](CC2CC2)C(=O)C(=O)NC)N(C(=O)[C@@H](NC(=O)[C@@H]2C[C@H]2c2ccccc2OC)C(C)(C)C)C3)cc1C [Compound 985],Ki,[2],< 100 nM
CCC[C@H](NC(=O)[C@@H]1C[C@]2(CC(c3cccc(Cl)c3)=NO2)CN1C(=O)[C@@H](NC(=O)[C@H]1CC1c1ccccc1)C(C)(C)OC)C(=O)C(=O)NC1CC1 (some centres unmarked) [Compound 960],Ki,[2],< 100 nM
CCC[C@H](NC(=O)[C@@H]1C[C@]2(CC(c3ccc(F)c(Cl)c3)=NO2)CN1C(=O)[C@@H](NC(=O)OC1CCCC1)C(C)(C)C)C(=O)C(=O)NC [Compound 653],Ki,[1],100 to 500 nM
CCC[C@H](NC(=O)[C@@H]1C[C@]2(CC(c3cc(Cl)ccc3OC)=NO2)CN1C(=O)[C@@H](NC(=O)CC1CCCCC1)C(C)(C)C)C(=O)C(=O)NC [Compound 632],Ki,[1],< 100 nM
CNC(=O)C(=O)[C@H](CC1CC1)NC(=O)[C@@H]1C[C@@]2(CC(c3nc(-c4ccccc4)no3)=NO2)CN1C(=O)[C@@H](NC(=O)OC1CCCC1)C(C)(C)C [Compound 694],Ki,[1],100 to 500 nM
COc1cc(OC)c(C2=NO[C@]3(C2)C[C@@H](C(=O)N[C@@H](CC2CC2)C(=O)C(N)=O)N(C(=O)[C@@H](NC(=O)OC(C)(C)C)C(C)(C)C)C3)cc1Cl [Compound 264],Ki,[1],< 100 nM
CCC[C@H](NC(=O)[C@@H]1C[C@]2(CC(c3cc(Cl)cc4c3OCOC4)=NO2)CN1C(=O)[C@@H](NC(=O)CC1CCCCC1)C(C)(C)C)C(=O)C(=O)NC1CC1 [Compound 676],Ki,[1],< 100 nM
CCOc1c(C)cc(C2=NO[C@]3(C2)C[C@@H](C(=O)N[C@@H](CC2CC2)C(=O)C(N)=O)N(C(=O)[C@@H](NC(=O)CC2CCCCC2)C(C)(C)C)C3)cc1C [Compound 975],Ki,[2],< 100 nM

# Source: patent publication US7964624B1, “Inhibitors of serine proteases” (priority 2005, dated 2011)
